Assay results as given in ChEMBL document CHEMBL4619786, “Discovery of Novel Resorcinol Dibenzyl Ethers Targeting the Programmed Cell Death-1/Programmed Cell Death-Ligand 1 Interaction as Potential Anticancer Agents” (J Med Chem, 2020).

Legend:
[1] = Toxicity in […] cells xenografted BALB/c mouse assessed as decrease in body weight at 25 mg/kg, ip administered once daily for 14 days measured daily during compound dosing; type: organism-based; conditions: in vivo, 336 h
Mus musculus [2] = assay: (§1) Immunostimulatory activity in mouse B16/F10 cells implanted BALB/c mouse assessed as increase in activation of tumor-microenvironment mediated helper T cells in tumor by measuring CD4-positive cell population at 50 mg/kg, ig administered once daily via gavage for 15 days measured 24 hrs post-last dose by immunostaining based flow cytometry (reference value: 4.95%); type: functional
[3] = target: Programmed cell death protein 1/Programmed cell death 1 ligand 1 (Mus musculus, UniProt Q9EP73); assay: Inhibition of mouse biotin-labelled C-terminal Fc-fused/Avi-tagged PD1/Fc-fused PDL1 expressed in HEK293 cells protein-protein interaction measured after 2 hrs by ELISA; type: cell-based
Sequence of Programmed cell death protein 1/Programmed cell death 1 ligand 1 (Mus musculus, UniProt Q9EP73) (Q9EP73 whole entry, the tested form may be a part): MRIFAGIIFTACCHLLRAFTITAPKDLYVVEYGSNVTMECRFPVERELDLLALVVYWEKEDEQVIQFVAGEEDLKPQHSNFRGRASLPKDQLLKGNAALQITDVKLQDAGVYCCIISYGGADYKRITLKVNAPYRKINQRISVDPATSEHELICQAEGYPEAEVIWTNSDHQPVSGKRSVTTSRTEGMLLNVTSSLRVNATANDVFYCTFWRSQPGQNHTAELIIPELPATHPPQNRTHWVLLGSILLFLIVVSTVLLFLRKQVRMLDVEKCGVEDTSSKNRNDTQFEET
Sequence of Programmed cell death protein 1/Programmed cell death 1 ligand 1 (Mus musculus, UniProt Q9EP73) (Q02242 whole entry, further chain, the tested form may be a part): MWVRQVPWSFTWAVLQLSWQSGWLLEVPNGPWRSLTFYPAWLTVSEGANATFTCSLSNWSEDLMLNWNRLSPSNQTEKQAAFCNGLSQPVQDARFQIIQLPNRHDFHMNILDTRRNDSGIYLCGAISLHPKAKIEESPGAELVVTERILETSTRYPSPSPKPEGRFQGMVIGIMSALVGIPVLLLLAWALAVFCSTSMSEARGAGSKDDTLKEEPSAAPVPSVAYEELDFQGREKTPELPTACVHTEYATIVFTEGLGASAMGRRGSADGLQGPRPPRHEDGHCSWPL

[4] = AUC (0 to infinity) in Sprague-Dawley rat at 10 mg/kg, po by LC-MS/MS analysis; type: ADME, organism-based; set-up: dose 10 mg/kg, time infinity, route oral; conditions: in vivo
Mus musculus [5] = assay: Effect on spleen helper T cell population in mouse B16/F10 cells implanted […] mouse assessed as CD3-positive cell population at 50 mg/kg, ig administered once daily via gavage for 15 days measured 24 hrs post-last dose by immunostaining based flow cytometry (reference value: 14.7%); type: organism-based; conditions: in vivo, po
[6] = target: Programmed cell death protein 1/Programmed cell death 1 ligand 1 (Homo sapiens) (UniProt Q15116+Q9NZQ7); assay: Ratio of EC50 for inhibition of human PD1/PDL1 protein-protein interaction in human PBMC-derived CD3-positive T cells co-cultured with human Hep3B cells expressing human PDL1/OS-8 assessed as increase in IFNgamma secretion to IC50 for inhibition of human PD1/PDL1 protein-protein interaction
Mus musculus [7] = assay: Effect on spleen helper T cell population in mouse B16/F10 cells implanted […] mouse assessed as CD4-positive cell population at 25 mg/kg, ig administered once daily via gavage for 15 days measured 24 hrs post-last dose by immunostaining based flow cytometry (reference value: 1.47 %); type: ADME, organism-based; conditions: in vivo, po
Mus musculus [8] = assay: as §1, with “activated cytotoxic” for “helper”, “CD3-positive/CD8-positive” for “CD4-positive”, “25” for “50”, “4.18%)” for “4.95%)”; type: functional
B16-F10 [9] = assay: Antitumor activity against mouse B16/F10 cells implanted in BALB/c mouse assessed as tumor growth inhibition at 25 mg/kg, ig administered once daily via gavage for 15 days relative to control; type: functional; conditions: B16-F10, po, 360 h, read-out: TGI
[10] = Tmax in Sprague-Dawley rat at 10 mg/kg, po by LC-MS/MS analysis; type: ADME, organism-based; conditions: in vivo
B16-F10 [11] = assay: Antitumor activity against mouse B16/F10 cells implanted in BALB/c mouse assessed as tumor growth inhibition at 100 mg/kg, ig administered once daily via gavage for 15 days relative to control; type: functional; conditions: B16-F10, po, 360 h, read-out: TGI
[12] = AUC (0 to infinity) in Sprague-Dawley rat at 1 mg/kg, iv by LC-MS/MS analysis; type: ADME, organism-based; set-up: dose 1 mg/kg, time infinity, route intravenous; conditions: in vivo
Mus musculus [13] = assay: (§2) Effect on activated cytotoxic T cell population in mouse B16/F10 cells implanted […] mouse assessed as CD8-positive cell population in spleen at 25 mg/kg, ig administered once daily via gavage for 15 days measured 24 hrs post-last dose by immunostaining based flow cytometry (reference value: 0.383 %); type: organism-based; conditions: in vivo, po
Mus musculus [14] = assay: as §2, with “CD3-positive” for “CD8-positive”, “100” for “25”, “27.5” for “0.383”; type: organism-based; conditions: in vivo, po
Mus musculus [15] = assay: Effect on spleen helper T cell population in mouse B16/F10 cells implanted […] mouse assessed as spleen cell population at 25 mg/kg, ig administered once daily via gavage for 15 days measured 24 hrs post-last dose by immunostaining based flow cytometry (reference value: 56.1 %); type: ADME, organism-based; conditions: in vivo, po
Mus musculus [16] = assay: Effect on spleen helper T cell population in mouse B16/F10 cells implanted […] mouse assessed as CD4-positive cell population at 50 mg/kg, ig administered once daily via gavage for 15 days measured 24 hrs post-last dose by immunostaining based flow cytometry (reference value: 1.47 %); type: ADME, organism-based; conditions: in vivo, po
[17] = Tmax in Sprague-Dawley rat at 1 mg/kg, iv by LC-MS/MS analysis; type: ADME, organism-based; conditions: in vivo
[18] = Selectivity ratio of IC50 for inhibition of mouse biotin-labelled C-terminal Fc-fused/Avi-tagged PD1/Fc-fused PDL1 expressed in HEK293 cells protein-protein interaction to IC50 for inhibition of human PD1/PDL1 protein-protein interaction; type: cell-based
Mus musculus [19] = assay: as §1, with “CD3-positive/CD4-positive” for “CD4-positive”, “100” for “50”, “6.15%)” for “4.95%)”; type: functional
[20] = target: Programmed cell death protein 1/Programmed cell death 1 ligand 1 (Homo sapiens, UniProt Q9NZQ7); assay: Inhibition of human C-terminal Ig-Fc-tagged PD1 (Leu25 to Gln167 residues) expressed in HEK293 cells/human C-terminal epitope-His-tagged PDL1 (Phe19 to Arg238 residues) expressed in HEK293 cells protein-protein interaction preincubated for 15 mins with PDL1 followed by PD1 addition and measured after 15 mins by APC-labeled anti-His antibody/Eu-labeled anti-human IgG based HTRF assay; type: cell-based
Sequence of Programmed cell death protein 1/Programmed cell death 1 ligand 1 (Homo sapiens, UniProt Q9NZQ7) (Q15116 whole entry): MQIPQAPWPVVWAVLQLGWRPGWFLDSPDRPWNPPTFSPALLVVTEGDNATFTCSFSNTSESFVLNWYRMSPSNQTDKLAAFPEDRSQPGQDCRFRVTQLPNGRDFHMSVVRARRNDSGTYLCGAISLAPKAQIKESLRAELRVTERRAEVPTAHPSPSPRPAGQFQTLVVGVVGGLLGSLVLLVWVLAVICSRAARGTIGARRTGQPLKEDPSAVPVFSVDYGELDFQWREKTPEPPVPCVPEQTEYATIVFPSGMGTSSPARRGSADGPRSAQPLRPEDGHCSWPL
Sequence of Programmed cell death protein 1/Programmed cell death 1 ligand 1 (Homo sapiens, UniProt Q9NZQ7) (Q9NZQ7 whole entry): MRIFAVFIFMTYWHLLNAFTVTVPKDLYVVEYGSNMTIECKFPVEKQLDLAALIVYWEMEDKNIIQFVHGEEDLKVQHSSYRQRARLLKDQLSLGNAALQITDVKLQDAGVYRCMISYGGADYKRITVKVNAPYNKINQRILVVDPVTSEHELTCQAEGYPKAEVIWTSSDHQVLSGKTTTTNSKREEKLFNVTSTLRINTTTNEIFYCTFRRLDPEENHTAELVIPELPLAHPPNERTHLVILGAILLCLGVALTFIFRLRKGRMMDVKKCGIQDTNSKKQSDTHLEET

Mus musculus [21] = assay: Effect on spleen helper T cell population in mouse B16/F10 cells implanted […] mouse assessed as spleen cell population at 100 mg/kg, ig administered once daily via gavage for 15 days measured 24 hrs post-last dose by immunostaining based flow cytometry (reference value: 56.1 %); type: ADME, organism-based; conditions: in vivo, po
Mus musculus [22] = assay: as §1, with “25” for “50”; type: functional
Mus musculus [23] = assay: as §1, with “activated cytotoxic” for “helper”, “melanoma” for “CD4-positive”, “72.8%)” for “4.95%)”; type: functional
[24] = Toxicity in Sprague-Dawley rat at 10 mg/kg, po; type: organism-based; conditions: in vivo
[25] = Toxicity in mouse B16/F10 cells implanted […] mouse assessed as change in spleen weight at 25 to 100 mg/kg, ig administered once daily via gavage for 15 days measured 24 hrs post-last dose; type: organism-based; conditions: in vivo, po
Mus musculus [26] = assay: Effect on activated cytotoxic T cell population in mouse B16/F10 cells implanted […] mouse assessed as spleen cell population at 50 mg/kg, ig administered once daily via gavage for 15 days measured 24 hrs post-last dose by immunostaining based flow cytometry (reference value: 57.9 %); type: organism-based; conditions: in vivo, po
Mus musculus [27] = assay: as §1, with “activated cytotoxic” for “helper”, “CD8-positive” for “CD4-positive”, “25” for “50”, “2.2%)” for “4.95%)”; type: functional
Mus musculus [28] = assay: as §2, with “CD3-positive” for “CD8-positive”, “27.5” for “0.383”; type: organism-based; conditions: in vivo, po
[29] = Cmax in Sprague-Dawley rat at 10 mg/kg, po by LC-MS/MS analysis; type: ADME, organism-based; set-up: dose 10 mg/kg, route oral; conditions: in vivo
Mus musculus [30] = assay: Effect on spleen helper T cell population in mouse B16/F10 cells implanted […] mouse assessed as CD3-positive cell population at 25 mg/kg, ig administered once daily via gavage for 15 days measured 24 hrs post-last dose by immunostaining based flow cytometry (reference value: 14.7%); type: organism-based; conditions: in vivo, po

- AUC(0-inf) [4]: 520 ng·h/mL
- Activity (Mus musculus [5]): 16.7%
- Activity (Mus musculus [7]): 1.94%
- Tmax [10]: 36 min
- AUC(0-inf) [12]: 1050 ng·h/mL
- Activity (Mus musculus [15]): 59.9%
- Activity (Mus musculus [16]): 1.18%
- Tmax [17]: 4.98 min
- Activity (Mus musculus [21]): 60.4%
- Cmax [29]: 69.5 ng/mL
- Activity (Mus musculus [30]): 13.8%
Compound: Cc1c(COc2cc(OCc3cccc(C#N)c3)c(CNC(C)(C)C(=O)O)cc2Cl)cccc1-c1ccccc1
- Activity [1]: Non-Toxic
- Activity (Mus musculus [2]): 2.27%
- IC50 [3]: > 1000 nM
- Ratio [6]: 240
- Activity (Mus musculus [8]): 12.4%
- inhibition in vivo at 25 mg/kg (B16-F10 [9]): 51.1%
- inhibition in vivo at 100 mg/kg (B16-F10 [11]): 80.9%
- Activity (Mus musculus [13]): 0.452%
- Activity (Mus musculus [14]): 25.4%
- Ratio IC50 [18]: > 80
- Activity (Mus musculus [19]): 13.8%
- IC50 [20]: 12.5 nM
- Activity (Mus musculus [22]): 4.36%
- Activity (Mus musculus [23]): 64.9%
- Activity [24]: Non-Toxic
- Activity [25]: Non-Toxic
- Activity (Mus musculus [26]): 55.4%
- Activity (Mus musculus [27]): 10.2%
- Activity (Mus musculus [28]): 24.3%
